Here are results for 22 molecules from publication PMC13266999, “Designing Antibiotics with Inherent Resistance to Efflux as a Strategy to Revive Discovery against Multidrug-Resistant Pathogens” (Journal of Medicinal Chemistry, 2026).

In this experiment the test system is S. aureus. The experiment in a line: MIC (microbroth dilution). In kind it is cell-based, Staphylococcus aureus. The note with it: for MIC: Staphylococcus aureus. Here is the method:
All bacteria were maintained on tryptic soy agar (TSA), except Streptococcus spp., which were maintained on Columbia agar plates containing 5% horse blood. […] Bacteria were grown to stationary phase in liquid culture overnight, with shaking at 200 rpm, before being back diluted to the relevant starting concentration for each assay below. MICs were measured by the microbroth dilution method. […] Absorbance at OD600 was read on a CLARIOstar spectrophotometer (BMG Labtech) and the MIC was defined as the minimum concentration of compound where no visible growth was detected. […] MICs were also performed in the presence of the outer membrane permeator, polymyxin b nonapeptide (PMBN) following the same MIC method but with the following variation. The 2-fold dilution series of compound was prepared as above, then 50 μL of PMBN at a final concentration of 30 μg/mL was added to relevant wells, while 50 μL/well of blank media was added to the remaining wells. Bacteria were then added at 50 μL/well for a starting concentration as above. […] The MICs were read and defined as above. All animal procedures were performed by the contract research organization Pharmacology Discovery Services Taiwan in accordance with the Guide for the Care and Use of Laboratory Animals. The procedures were approved by the Institutional Ethics Committee of Pharmacology Discovery Services Taiwan, Ltd. (approval no. AB127662), in compliance with animal welfare legislation in Taiwan.
Background: Broth dilution looks for growth in wells or tubes with falling amounts of substance.

[1] abbreviates: ATCC9144, ATCC 9144, read-out: MIC.
Where [2] appears, read: NCTC13277, NCTC 13277, read-out: MIC.
The mark [3] stands for this setting: NCTC13616, NCTC 13616, read-out: MIC.

Values after ≈ are worked out from the molar mass of the structure shown. Read-outs that look alike come from different tables or passages of the source. Bounds are passed on as bounds.

One may read the MIC as the smallest concentration in the dilution series that meets the test's criterion for growth inhibition.

For the molecule `CCn1cc(C(=O)O)c(=O)c2cc(F)c(N3CCN(Cc4ccc5ccccc5c4)CC3)cc21` [Compound 24, 1-Ethyl-6-fluoro-7-(4-(naphthalen-2-ylmethyl)piperazin-1-yl)-4-oxo-1,4-dihydroquinoline-3-carboxylic acid], the MIC under setting [1] was 0.25 µg/mL (≈ 0.544 µM), the MIC under setting [2] was 4 µg/mL (≈ 8.7 µM) and the MIC under setting [3] is 4 µg/mL (≈ 8.7 µM).
As for `c1ccc2c(CN3CCNCC3)cccc2c1` [NMP, 1-(naphthalen-1-ylmethyl)piperazine, reference compound], where the note is “fluoroquinolone-resistant S. aureus strains”, the “fold improvement over ciprofloxacin alone” value came out at 2 fold.
Regarding `CCn1cc(C(=O)O)c(=O)c2cc(F)c(N3CCN(Cc4cccc5c4CCCC5)CC3)cc21` [Compound 30, 1-Ethyl-6-fluoro-4-oxo-7-(4-((5,6,7,8-tetrahydronaphthalen-1-yl)methyl)piperazin-1-yl)-1,4-dihydroquinoline-3-carboxylic acid], the MIC by setting is: under setting [1], 1 µg/mL (≈ 2.16 µM); under setting [2], 2 µg/mL (≈ 4.31 µM); under setting [3], 2 µg/mL (≈ 4.31 µM); (SA-1199, read-out: MIC) 0.25 µg/mL (≈ 0.539 µM); (SA-1199B (NorA-overexpressing)) 0.5 µg/mL (≈ 1.08 µM).
In the case of `CN(C)c1ccc(CN2CCN(c3cc4c(cc3F)c(=O)c(C(=O)O)cn4C3CC3)CC2)cc1` [Compound 31, 1-Cyclopropyl-7-(4-(4-(dimethylamino)benzyl)piperazin-1-yl)-6-fluoro-4-oxo-1,4-dihydroquinoline-3-carboxylic acid], the MIC runs as follows: under setting [1], 0.06 to 0.125 µg/mL (≈ 0.129 to 0.269 µM); under setting [2], 16 to 32 µg/mL (≈ 34.4 to 68.9 µM); under setting [3], 8 to 16 µg/mL (≈ 17.2 to 34.4 µM); (SA-1199, read-out: MIC) 0.125 µg/mL (≈ 0.269 µM); (SA-1199B (NorA-overexpressing)) 0.25 µg/mL (≈ 0.538 µM).
On to `O=C(O)c1cn(C2CC2)c2cc(N3CCN(Cc4cccc5cccnc45)CC3)c(F)cc2c1=O` [Compound 27, 1-Cyclopropyl-6-fluoro-4-oxo-7-(4-(quinolin-8-ylmethyl)piperazin-1-yl)-1,4-dihydroquinoline-3-carboxylic acid], for which the MIC reads like this: under setting [1], 0.5 µg/mL (≈ 1.06 µM); under setting [2], 128 µg/mL (≈ 271 µM); under setting [3], 64 µg/mL (≈ 135 µM); (SA-1199, read-out: MIC) 0.125 µg/mL (≈ 0.265 µM); (SA-1199B (NorA-overexpressing)) 0.25 µg/mL (≈ 0.529 µM).
As to `CCn1cc(C(=O)O)c(=O)c2cc(F)c(N3CCN(Cc4cccc5ccccc45)CC3)nc21` [Compound 21, 1-Ethyl-6-fluoro-7-(4-(naphthalen-1-ylmethyl)piperazin-1-yl)-4-oxo-1,4-dihydro-1,8-naphthyridine-3-carboxylic acid], the MIC under setting [1] lay within 0.5 to 1 µg/mL (≈ 1.09 to 2.17 µM), the MIC under setting [2] lay in the range of 2 to 4 µg/mL (≈ 4.34 to 8.69 µM) and the MIC under setting [3] was in the range of 2 to 8 µg/mL (≈ 4.34 to 17.4 µM).
Take `C[C@H]1COc2c(N3CC[C@@H](N)C3)c(F)cc3c(=O)c(C(=O)O)cn1c23` [Compound 45, (S)-10-((R)-3-Aminopyrrolidin-1-yl)-9-fluoro-3-methyl-7-oxo-2,3-dihydro-7H-[1,4]oxazino[2,3,4-ij]quinoline-6-carboxylic acid]: the “fold loss of activity compared to 46” value is recorded as 32- to 64 fold. Moreover, under setting [1], the minimal inhibitory concentration (MIC) came out at 0.25 µg/mL (≈ 0.72 µM). The MIC under setting [2] was 32 µg/mL (≈ 92.1 µM). Under setting [3], the MIC was found to be 32 µg/mL (≈ 92.1 µM).
Turning to `O=C(O)c1cn(C2CC2)c2cc(N3CCN(Cc4ccc(F)c5ccccc45)CC3)c(F)cc2c1=O` [Compound 35, 1-Cyclopropyl-6-fluoro-7-(4-((4-fluoronaphthalen-1-yl)methyl)piperazin-1-yl)-4-oxo-1,4-dihydroquinoline-3-carboxylic acid], the MIC reads like this: under setting [1], 4 µg/mL (≈ 8.17 µM); under setting [2], 8 µg/mL (≈ 16.3 µM); under setting [3], 4 µg/mL (≈ 8.17 µM).
`CCn1cc(C(=O)O)c(=O)c2cc(F)c(N3CCN(Cc4ccccc4)CC3)cc21` [Compound 26, 7-(4-Benzylpiperazin-1-yl)-1-ethyl-6-fluoro-4-oxo-1,4-dihydroquinoline-3-carboxylic acid]: the minimum inhibitory concentration (MIC) runs as follows: under setting [1], 0.25 µg/mL (≈ 0.611 µM); under setting [2], 16 to 32 µg/mL (≈ 39.1 to 78.2 µM); under setting [3], 16 µg/mL (≈ 39.1 µM).
As for `C[C@H]1COc2c(N3CC[C@@H](Nc4cnccn4)C3)c(F)cc3c(=O)c(C(=O)O)cn1c23` [Compound 48, (S)-9-Fluoro-3-methyl-7-oxo-10-((R)-3-(pyrazin-2-ylamino)pyrrolidin-1-yl)-2,3-dihydro-7H-[1,4]oxazino[2,3,4-ij]quinoline-6-carboxylic acid], the MIC is at most 0.125 µg/mL under setting [1]; 1 µg/mL (≈ 2.35 µM) under setting [2]; 1 µg/mL (≈ 2.35 µM) under setting [3]; 0.03 µg/mL (≈ 0.0705 µM) (SA-1199, read-out: MIC); 0.125 µg/mL (≈ 0.294 µM) (SA-1199B (NorA-overexpressing)).
For `C[C@H]1COc2c(N3CC[C@@H](Nc4ncc(F)cn4)C3)c(F)cc3c(=O)c(C(=O)O)cn1c23` [Compound 47, (S)-9-Fluoro-10-((R)-3-((5-fluoropyrimidin-2-yl)amino)pyrrolidin-1-yl)-3-methyl-7-oxo-2,3-dihydro-7H-[1,4]oxazino[2,3,4-ij]quinoline-6-carboxylic acid], the MIC under setting [1] is at most 0.125 µg/mL, the MIC under setting [2] stood at 1 µg/mL (≈ 2.26 µM) and the MIC under setting [3] was 0.5 µg/mL (≈ 1.13 µM).
With `O=C(O)c1cn(C2CC2)c2cc(N3CCN(Cc4ccc5ccccc5c4)CC3)c(F)cc2c1=O` [Compound 23, 1-Cyclopropyl-6-fluoro-7-(4-(naphthalen-2-ylmethyl)piperazin-1-yl)-4-oxo-1,4-dihydroquinoline-3-carboxylic acid], the minimum inhibitory concentration (MIC) worked out at 0.125 µg/mL (≈ 0.265 µM) under setting [1], 2 µg/mL (≈ 4.24 µM) under setting [2] and 2 µg/mL (≈ 4.24 µM) under setting [3].
`O=C(O)c1cn(C2CC2)c2cc(N3CCN(Cc4cccc5c4CCCC5)CC3)c(F)cc2c1=O` [Compound 29, 1-Cyclopropyl-6-fluoro-4-oxo-7-(4-((5,6,7,8-tetrahydronaphthalen-1-yl)methyl)piperazin-1-yl)-1,4-dihydroquinoline-3-carboxylic acid]: the MIC under setting [1] was 0.25 to 1 µg/mL (≈ 0.526 to 2.1 µM); the MIC under setting [2] was in the range of 1 to 2 µg/mL (≈ 2.1 to 4.21 µM); the minimum inhibitory concentration (MIC) under setting [3] was determined as 1 µg/mL (≈ 2.1 µM); the MIC (SA-1199, read-out: MIC) amounted to 0.5 µg/mL (≈ 1.05 µM); inhibition of growth (SA-1199B (NorA-overexpressing)) (MIC) required 0.5 µg/mL (≈ 1.05 µM).
`CCn1cc(C(=O)O)c(=O)c2cc(F)c(N3CCN(Cc4cccc5c4OCO5)CC3)cc21` [Compound 34, 7-(4-(Benzo[d][1,3]dioxol-4-ylmethyl)piperazin-1-yl)-1-ethyl-6-fluoro-4-oxo-1,4-dihydroquinoline-3-carboxylic acid]: the MIC was 0.5 µg/mL (≈ 1.1 µM) under setting [1], above 32 µg/mL under setting [2] and above 32 µg/mL under setting [3].
Take `CCn1cc(C(=O)O)c(=O)c2cc(F)c(N3CCNCC3)cc21` [Compound 2, norfloxacin, reference compound]: the MIC was 2 µg/mL (≈ 6.26 µM) under setting [1], above 128 µg/mL under setting [2] and above 128 µg/mL under setting [3].
Turning to `CCn1cc(C(=O)O)c(=O)c2cc(F)c(N3CCN(Cc4cccc5ccsc45)CC3)cc21` [Compound 38, 7-(4-(Benzo[b]thiophen-7-ylmethyl)piperazin-1-yl)-1-ethyl-6-fluoro-4-oxo-1,4-dihydroquinoline-3-carboxylic acid], the MIC came out at 0.25 µg/mL (≈ 0.537 µM) under setting [1], 2 µg/mL (≈ 4.3 µM) under setting [2] and 2 µg/mL (≈ 4.3 µM) under setting [3].
In the case of `CCn1cc(C(=O)O)c(=O)c2cc(F)c(N3CCN(Cc4ccc(-c5ccccc5)cc4)CC3)cc21` [Compound 40, 7-(4-([1,1’-Biphenyl]-4-ylmethyl)piperazin-1-yl)-1-ethyl-6-fluoro-4-oxo-1,4-dihydroquinoline-3-carboxylic acid], the MIC under setting [1] is 2 µg/mL (≈ 4.12 µM), the MIC under setting [2] is 4 µg/mL (≈ 8.24 µM) and the MIC under setting [3] was determined as 2 µg/mL (≈ 4.12 µM).
With `C[C@H]1COc2c(N3CCN(Cc4cccc5ccccc45)CC3)c(F)cc3c(=O)c(C(=O)O)cn1c23` [Compound 22, (S)-9-Fluoro-3-methyl-10-(4-(naphthalen-1-ylmethyl)piperazin-1-yl)-7-oxo-2,3-dihydro-7H-[1,4]oxazino[2,3,4-ij]quinoline-6-carboxylic acid], the MIC is, setting by setting: under setting [1], 0.125 to 1 µg/mL (≈ 0.256 to 2.05 µM); under setting [2], 2 to 4 µg/mL (≈ 4.1 to 8.2 µM); under setting [3], 4 µg/mL (≈ 8.2 µM); (SA-1199, read-out: MIC) 0.25 µg/mL (≈ 0.513 µM); (SA-1199B (NorA-overexpressing)) 0.5 µg/mL (≈ 1.03 µM).
With `CCn1cc(C(=O)O)c(=O)c2cc(F)c(N3CCN(Cc4cccc5cccnc45)CC3)cc21` [Compound 28, 1-Ethyl-6-fluoro-4-oxo-7-(4-(quinolin-8-ylmethyl)piperazin-1-yl)-1,4-dihydroquinoline-3-carboxylic acid], the MIC was 1 µg/mL (≈ 2.17 µM) under setting [1], 128 µg/mL (≈ 278 µM) under setting [2] and 128 µg/mL (≈ 278 µM) under setting [3].
`Cc1cc(N[C@@H]2CCN(c3c(F)cc4c(=O)c(C(=O)O)cn5c4c3OC[C@@H]5C)C2)ncn1` [Compound 49, (S)-9-Fluoro-3-methyl-10-((R)-3-((6-methylpyrimidin-4-yl)amino)pyrrolidin-1-yl)-7-oxo-2,3-dihydro-7H-[1,4]oxazino[2,3,4-ij]quinoline-6-carboxylic acid]: the MIC under setting [1] stood at 0.016 µg/mL (≈ 0.0364 µM); the MIC under setting [2] was 0.5 µg/mL (≈ 1.14 µM); the MIC under setting [3] was 0.25 µg/mL (≈ 0.569 µM); the MIC (SA-1199, read-out: MIC) stood at 0.016 µg/mL (≈ 0.0364 µM); the MIC (SA-1199B (NorA-overexpressing)) was found to be 0.016 µg/mL (≈ 0.0364 µM).
With `O=C(O)c1cn(C2CC2)c2cc(N3CCN(Cc4ccccc4)CC3)c(F)cc2c1=O` [Compound 25, 7-(4-Benzylpiperazin-1-yl)-1-cyclopropyl-6-fluoro-4-oxo-1,4-dihydro quinoline-3-carboxylic acid], the MIC by setting is: under setting [1], 0.125 to 0.25 µg/mL (≈ 0.297 to 0.593 µM); under setting [2], 32 µg/mL (≈ 75.9 µM); under setting [3], 16 to 32 µg/mL (≈ 38 to 75.9 µM).
For the molecule `CCn1cc(C(=O)O)c(=O)c2cc(F)c(N3CCNCC3)nc21` [Compound 3, enoxacin, reference compound], the MIC was 2 µg/mL (≈ 6.24 µM) under setting [1], 128 µg/mL (≈ 400 µM) under setting [2] and above 128 µg/mL under setting [3].
